Counter-ions that a name gives are not always drawn.
The compounds below were run against hNav1.7 (Homo sapiens (Human), UniProt Q15858) (assay: Tritiated sulfonamide competitive binding to membranes from cells expressing hNav1.7 and the β1 subunit). Conditions: not given.
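Further: Filter-bound radioactivity counted by liquid scintillation, nonspecific binding defined with excess unlabelled ligand, IC50 fitted to percent inhibition of specific binding.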

hNav1.7, sequence (Q15858 other isoform, or with tags, fused parts or gaps): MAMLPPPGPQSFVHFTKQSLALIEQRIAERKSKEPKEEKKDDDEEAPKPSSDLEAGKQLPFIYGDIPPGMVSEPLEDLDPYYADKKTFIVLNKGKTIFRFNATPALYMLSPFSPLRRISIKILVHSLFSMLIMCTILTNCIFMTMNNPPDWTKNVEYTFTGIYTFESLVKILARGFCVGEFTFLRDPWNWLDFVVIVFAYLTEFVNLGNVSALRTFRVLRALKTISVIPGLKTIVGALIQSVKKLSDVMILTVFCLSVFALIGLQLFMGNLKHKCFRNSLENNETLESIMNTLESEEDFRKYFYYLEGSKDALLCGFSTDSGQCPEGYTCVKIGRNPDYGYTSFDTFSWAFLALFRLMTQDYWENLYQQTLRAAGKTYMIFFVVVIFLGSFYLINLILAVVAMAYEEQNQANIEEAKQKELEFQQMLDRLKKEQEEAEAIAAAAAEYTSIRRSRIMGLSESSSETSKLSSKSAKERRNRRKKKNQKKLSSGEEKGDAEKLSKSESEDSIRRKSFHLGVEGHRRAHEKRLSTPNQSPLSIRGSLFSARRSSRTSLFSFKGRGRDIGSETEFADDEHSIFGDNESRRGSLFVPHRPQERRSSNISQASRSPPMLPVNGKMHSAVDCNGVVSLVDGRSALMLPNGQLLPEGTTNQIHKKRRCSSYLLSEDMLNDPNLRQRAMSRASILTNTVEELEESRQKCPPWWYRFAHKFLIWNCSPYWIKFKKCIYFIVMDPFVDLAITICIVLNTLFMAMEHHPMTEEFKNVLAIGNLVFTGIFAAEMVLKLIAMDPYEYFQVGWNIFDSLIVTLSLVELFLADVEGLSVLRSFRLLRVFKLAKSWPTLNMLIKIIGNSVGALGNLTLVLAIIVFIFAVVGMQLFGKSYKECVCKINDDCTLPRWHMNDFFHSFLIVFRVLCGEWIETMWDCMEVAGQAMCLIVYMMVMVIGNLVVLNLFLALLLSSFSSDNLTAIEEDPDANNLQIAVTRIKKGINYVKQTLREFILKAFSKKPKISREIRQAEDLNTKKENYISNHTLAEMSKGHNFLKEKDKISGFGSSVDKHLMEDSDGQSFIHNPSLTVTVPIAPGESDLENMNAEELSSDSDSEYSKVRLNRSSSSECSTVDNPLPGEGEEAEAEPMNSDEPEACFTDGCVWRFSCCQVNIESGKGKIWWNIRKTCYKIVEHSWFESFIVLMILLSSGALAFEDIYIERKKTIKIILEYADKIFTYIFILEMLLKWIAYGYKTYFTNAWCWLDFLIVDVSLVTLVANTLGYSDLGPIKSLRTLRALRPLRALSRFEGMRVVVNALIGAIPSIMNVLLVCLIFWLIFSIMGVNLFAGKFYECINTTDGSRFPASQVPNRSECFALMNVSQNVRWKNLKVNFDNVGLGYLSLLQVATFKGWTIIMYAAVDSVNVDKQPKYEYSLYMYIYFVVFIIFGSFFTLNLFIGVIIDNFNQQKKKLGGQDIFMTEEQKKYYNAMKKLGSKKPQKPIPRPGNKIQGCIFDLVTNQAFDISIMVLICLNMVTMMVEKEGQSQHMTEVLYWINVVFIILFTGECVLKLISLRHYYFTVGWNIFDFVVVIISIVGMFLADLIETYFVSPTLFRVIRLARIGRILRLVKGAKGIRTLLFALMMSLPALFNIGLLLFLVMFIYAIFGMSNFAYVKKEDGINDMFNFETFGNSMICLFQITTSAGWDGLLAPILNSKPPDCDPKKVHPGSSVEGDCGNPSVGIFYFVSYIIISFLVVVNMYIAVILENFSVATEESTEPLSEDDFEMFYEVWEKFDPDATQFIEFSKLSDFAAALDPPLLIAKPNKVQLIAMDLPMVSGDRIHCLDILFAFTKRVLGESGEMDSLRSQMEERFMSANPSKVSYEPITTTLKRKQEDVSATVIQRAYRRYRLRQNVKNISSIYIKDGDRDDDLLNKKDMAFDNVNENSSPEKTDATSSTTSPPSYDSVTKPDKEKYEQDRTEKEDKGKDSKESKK
hNav1.7, sequence (Q07699 19-218 partner): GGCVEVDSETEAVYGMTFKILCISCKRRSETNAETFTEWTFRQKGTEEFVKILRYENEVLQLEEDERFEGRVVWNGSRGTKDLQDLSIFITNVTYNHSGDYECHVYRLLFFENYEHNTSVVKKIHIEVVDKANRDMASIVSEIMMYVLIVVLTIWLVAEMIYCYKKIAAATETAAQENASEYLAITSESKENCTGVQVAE

Compound | IC50 [nM]
CS(=O)(=O)NC(=O)c1cc(C2CC2)c(CN2CCC(Oc3ncc(C(F)(F)F)cc3Cl)CC2)cc1F [Example 523, 4-((4-((3-chloro-5-(trifluoromethyl)pyridin-2-yl)oxy)piperidin-1-yl)methyl)-5-cyclopropyl-2-fluoro-N-(methylsulfonyl)benzamide, trifluoroacetic acid salt] | 5.8
O=C(NS(=O)(=O)C1CC1)c1cc(C2CC2)c(O[C@@H]2CCCN(c3ccc(F)cc3)C2)cc1F [Example 38, (R)-5-cyclopropyl-N-(cyclopropylsulfonyl)-2-fluoro-4-((1-(4-fluorophenyl)piperidin-3-yl)oxy)benzamide] | 3.9
O=C(NS(=O)(=O)C1CC1)c1cc(C2CC2)c(CN2CCC(Oc3ccc(Cl)c(Cl)c3)CC2)cc1F [Example 510, 5-cyclopropyl-N-(cyclopropylsulfonyl)-4-((4-(3,4-dichlorophenoxy)piperidin-1-yl)methyl)-2-fluorobenzamide, trifluoroacetic acid salt] | 9.1
O=C(NS(=O)(=O)C1CC1)c1cc(C2CC2)c(CN2CCC(Oc3ncc(C(F)(F)F)cc3Cl)CC2)cc1F [Example 524, 4-((4-((3-chloro-5-(trifluoromethyl)pyridin-2-yl)oxy)piperidin-1-yl)methyl)-5-cyclopropyl-N-(cyclopropylsulfonyl)-2-fluorobenzamide, trifluoroacetic acid salt] | 11.4
CS(=O)(=O)NC(=O)c1cc(C2CC2)c(CN2CCC(Oc3cc(Cl)cc(OC(F)(F)F)c3)CC2)cc1F [Example 548, 4-((4-(3-chloro-5-(trifluoromethoxy)phenoxy)piperidin-1-yl)methyl)-5-cyclopropyl-2-fluoro-N-(methylsulfonyl)benzamide, trifluoroacetic acid salt] | 3.7

Same assay, conditions: read-out: Ligand Binding Assay; 100 pM [3H]compound, membranes with hNav1.7 and β1 subunit, 18 h, room temperature

Compound | IC50 [nM]
CS(=O)(=O)NC(=O)c1cc(C2CC2)c(OCC2CCN(S(=O)(=O)C3CCOCC3)CC2)cc1F [Example 376, 5-cyclopropyl-2-fluoro-N-(methylsulfonyl)-4-((1-((tetrahydro-2H-pyran-4-yl)sulfonyl)piperidin-4-yl)methoxy)benzamide] | 2450
O=C(NS(=O)(=O)C1CC1)c1cc(C2CC2)c(OCC2CCN(S(=O)(=O)c3cc(F)c(F)c(F)c3)CC2)cc1F [Example 381, 5-cyclopropyl-N-(cyclopropylsulfonyl)-2-fluoro-4-((1-((3,4,5-trifluorophenyl)sulfonyl)piperidin-4-yl)methoxy)benzamide] | 14.8
CC1(COc2cc(F)c(C(=O)NS(C)(=O)=O)cc2C2CC2)CCN(C(=O)c2cc(Cl)c(Cl)cc2F)CC1 [Example 577, 5-cyclopropyl-4-((1-(4,5-dichloro-2-fluorobenzoyl)-4-methylpiperidin-4-yl)methoxy)-2-fluoro-N-(methylsulfonyl)benzamide] | 40
CS(=O)(=O)NC(=O)c1cc(C2CC2)c(OCC2CN(C(c3ccccc3)c3cccc(F)c3)C2)cc1F (centres unmarked) [Example 154, 5-Cyclopropyl-2-fluoro-4-((1-((3-fluorophenyl)(phenyl)methyl)azetidin-3-yl)methoxy)-N-(methylsulfonyl)benzamide] | 9.12
O=C(NS(=O)(=O)N1CCC1)c1cc(C2CC2)c(O[C@@H]2CCN(Cc3ccccc3)C2)cc1F [Example 46, (R)—N-(azetidin-1-ylsulfonyl)-4-((1-benzylpyrrolidin-3-yl)oxy)-5-cyclopropyl-2-fluorobenzamide] | 920
CCS(=O)(=O)NC(=O)c1cc(C2CC2)c(OCC2CCN([C@@H](c3cc(Cl)cc(Cl)c3)C(F)F)CC2)cc1F [Example 226, (S)-5-cyclopropyl-4-((1-(1-(3,5-dichlorophenyl)-2,2-difluoroethyl)piperidin-4-yl)methoxy)-N-(ethylsulfonyl)-2-fluorobenzamide] | 12
CS(=O)(=O)NC(=O)c1cc(C2CC2)c(OCC2CCN(S(=O)(=O)c3ccc(F)c(Cl)c3)CC2)cc1F [Example 382, 4-((1-((3-chloro-4-fluorophenyl)sulfonyl)piperidin-4-yl)methoxy)-5-cyclopropyl-2-fluoro-N-(methylsulfonyl)benzamide] | 40.7
CCS(=O)(=O)NC(=O)c1cc(C2CC2)c(OCC2CCN(C3(c4cc(Cl)cc(Cl)c4)COC3)CC2)cc1F [Example 177, 5-Cyclopropyl-4-((1-(3-(3,5-dichlorophenyl)oxetan-3-yl)piperidin-4-yl)methoxy)-N-(ethylsulfonyl)-2-fluorobenzamide] | 8.3
CC(c1cc(Cl)cc(Cl)c1)N1CCC(COc2cc(F)c(C(=O)NS(C)(=O)=O)cc2C2CC2)CC1 (centres unmarked) [Example 97, 5-Cyclopropyl-4-((1-(1-(3,5-dichlorophenyl)ethyl)piperidin-4-yl)methoxy)-2-fluoro-N-(methylsulfonyl)benzamide] | 2.69
CCS(=O)(=O)NC(=O)c1cc(C2CC2)c(OCC2CCN(C(C)(C)c3cc(Cl)cc(Cl)c3)CC2)cc1F [Example 210, 5-Cyclopropyl-4-((1-(2-(3,5-dichlorophenyl)propan-2-yl)piperidin-4-yl)methoxy)-N-(ethylsulfonyl)-2-fluorobenzamide] | 1.9
CC(c1cc(Cl)cc(Cl)c1)N1CCC(COc2cc(F)c(C(=O)NS(=O)(=O)N3CCC3)cc2C2CC2)CC1 (centres unmarked) [Example 103, N-(Azetidin-1-ylsulfonyl)-5-cyclopropyl-4-((1-(1-(3,5-dichlorophenyl)-ethyl)piperidin-4-yl)methoxy)-2-fluorobenzamide] | 5.24
C[C@@H](c1ccc(Cl)cc1Cl)N1CCC(C)(COc2cc(F)c(C(=O)NS(C)(=O)=O)cc2C2CC2)CC1 [Example 280, (S)-5-cyclopropyl-4-((1-(1-(2,4-dichlorophenyl)ethyl)-4-methylpiperidin-4-yl)methoxy)-2-fluoro-N-(methylsulfonyl)benzamide] | 8.1
COC[C@@H](c1ccc(Cl)c(Cl)c1)N1CCC(COc2cc(F)c(C(=O)NS(C)(=O)=O)cc2C2CC2)CC1 (single isomer, unassigned) [Example 264] | 9.2
Cc1ccc(CN2CCC[C@@H](Oc3cc(F)c(C(=O)NS(C)(=O)=O)cc3C3CC3)C2)cc1C [Example 439, (R)-5-cyclopropyl-4-((1-(3,4-dimethylbenzyl)piperidin-3-yl)oxy)-2-fluoro-N-(methylsulfonyl)benzamide, trifluoracetic acid salt] | 11
COc1ccc(CN2CCC[C@@H](Oc3cc(F)c(C(=O)NS(C)(=O)=O)cc3C3CC3)C2)c(Cl)c1 [Example 432, (R)-4-((1-(2-chloro-4-methoxybenzyl)piperidin-3-yl)oxy)-5-cyclopropyl-2-fluoro-N-(methylsulfonyl)benzamide, trifluoroacetic acid salt] | 3.3
O=C(NS(=O)(=O)C1CC1)c1cc(C2CC2)c(O[C@@H]2CCCN(Cc3cc(Cl)cc(Cl)c3)C2)cc1F [Example 3, (R)-5-cyclopropyl-N-(cyclopropylsulfonyl)-4-((1-(3,5-dichlorobenzyl)piperidin-3-yl)oxy)-2-fluorobenzamide] | 2.6
C[C@@H]1CC[C@@H](Oc2cc(F)c(C(=O)NS(C)(=O)=O)cc2C2CC2)CN1Cc1ccc(F)cc1Cl [Example 52] | < 1.6
COC[C@@H](c1cc(Cl)cc(Cl)c1)N1CCC(C)(COc2cc(F)c(C(=O)NS(C)(=O)=O)cc2C2CC2)CC1 (single isomer, unassigned) [Example 172] | 3.9

— patent US9546164B2 (GENENTECH, INC., priority 2013, dated 2017)
